These results are taken from US20040084383A1, “Method to inhibit growth of microorganisms in aqueous systems and on substrates using a persulfate and a bromide” (BUCKMAN LABORATORIES INTERNATIONAL, INC., priority 2002, published 2004).

The test has as its system Pseudomonas aeruginosa. Kind of test: Antimicrobial efficacy in inoculated pulp slurry (24 hr incubation, plated in nutrient agar, cfu/ml counted). The format is cell-based. The method, then:
A concentrated solution of active biocidal composition was prepared by mixing 44% (w/v) of aqueous ammonium persulfate with 40% (w/v) aqueous sodium bromide in equal volume. The final mixture contains 22% ammonium persulfate and 20% NaBr at pH 2.2. The molar ratio of the components was 1:2 for (NH4)2S2O8:NaBr. Four hours after mixing, the concentrated solution was diluted with water to contain 5% ammonium persulfate. This diluted solution (5%) was then added to 50 ml pulp slurry to give a biocidal concentration of 10 ppm (as ammonium persulfate) in pulp slurry. The pulp slurry was then inoculated with 3×10^6 cells/ml of Pseudomonas aeruginosa, incubated at room temperature for 24 hr, plated in nutrient agar. The colony forming units per milliliter (cfu/ml) was counted and compared with each individual component acting alone.
The pulp slurry contains white bleached dry pulp at 5 g/L; cationic starch at 10 bl/ton dry pulp; CaCO3 at 300 bl/ton dry pulp; ASA size at 3-4 lb/ton dry pulp; retention aids at 0.5-1.0 bl/ton dry pulp; defoamer at 250 g/ton dry pulp. The pulp slurry has a consistency of about 0.5 to 0.7%. The final pH of the pulp substrate after autoclave is about 8.0. […] Neither component acting alone provides significant antimicrobial efficacy.
The antimicrobial efficacy of the mixture containing 22% (w/v) aqueous ammonium persulfate and 20% (w/v) aqueous NaBr was tested at different times after mixing, aging times. The mixture preparation, at pH 2.2, and the test system are the same as that described in Example 1. At each time, a portion of the mixture was taken and diluted to 5% (as ammonium persulfate). The diluted solution was then added to pulp slurry to give a final concentration of 5, 10, 20, and 40 ppm (as ammonium persulfate) in pulp slurry. […] At only 5 ppm level, it achieved 2.5 logs reduction, which represents greater than 99% kill. […] It requires about 4 hr to provide significant activity. At about 8 hr after mixing, the mixed solution reached the maximum activity. The biocidal efficacy of the mixture was maintained or stabilized for at least 7 days.
Three mixtures were generated. Mixture #1 was prepared by mixing 22% (NH4)2S2O8 with 20% NaBr in equal volume. The final concentrations in mixture #1 were 11% (NH4)2S2O8 and 10% NaBr. Mixture #2 was made by mixing 33% (NH4)2S2O8 with 30% NaBr in equal volume. The final concentrations in Mixture #2 were 16.5% (NH4)2S2O8 and 15% NaBr. Mixture #3 was prepared by mixing 44% (NH4)2S2O8 with 40% NaBr in equal volume. In the final solution, Mixture #3 contains 22% (NH4)2S2O8 and 20% NaBr. All three mixtures, having a pH 2.2, were tested at a dosage of 20 ppm, and at 1, 2, 4, and 8 hr after mixing for their antimicrobial activity in the pulp slurry described in Example 1. […]

Setting [1] is: 100 ppm as pure compound in pulp slurry.
Where [2] appears, read: 1000 ppm as pure compound in pulp slurry.

Molecules are shown by their SMILES.

With `N.N.O=S(=O)(O)OOS(=O)(=O)O` [(NH4)2S2O8, ammonium persulfate], under setting [1], the CFU/ml is reported as 4.5 × 10^5 CFU/ml and the “Log Reduction” value is 0.97.
In the case of `[Br-].[Na+]` [NaBr, sodium bromide], under setting [2], the CFU/ml is 4.2 × 10^6 CFU/ml and the “Log Reduction” value is given as 0.00.
